# Measured values reported in ChEMBL document CHEMBL1131756, “Synthesis and biological activity of anthelmintic thiadiazoles using an AF-2 receptor binding assay” (Bioorg Med Chem Lett, 1999).
# Molecular target: AF2 neuropeptide receptor
# Test: In vitro antihelminthic activity using AF2 Neuropeptide receptor binding assay in Caenorhabditis elegans
row,Structure (SMILES),IC50
1,N=c1sc(-c2ccccc2SC(F)(F)F)nn1-c1c(Cl)cc(C(F)(F)F)cc1Cl,56 µM
2,N=c1sc(-c2cccc(F)c2)nn1-c1c(Cl)cc(Cl)cc1Cl,8 µM
3,COC(=O)c1ccccc1-c1nn(-c2c(Cl)cc(C(F)(F)F)cc2Cl)c(=N)s1,> 100 µM
4,N=c1sc(-c2cc(CN)ccn2)nn1-c1c(Cl)cc(C(F)(F)F)cc1Cl,47 µM
5,N=c1sc(-c2c(F)cccc2C(F)(F)F)nn1-c1c(Cl)cc(C(F)(F)F)cc1Cl,> 100 µM
6,N=c1sc(-c2cccc(Br)n2)nn1-c1c(Cl)cc(C(F)(F)F)cc1Cl,20 µM
7,Cc1cccnc1-c1nn(-c2c(Cl)cc(C(F)(F)F)cc2Cl)c(=N)s1,11 µM
8,N=c1sc(-c2ccc([N+](=O)[O-])cc2)nn1-c1c(Cl)cc(Cl)cc1Cl,5 µM
9,N=c1sc(-c2ccc(C(F)(F)F)cc2)nn1-c1c(Cl)cc(Cl)cc1Cl,20 µM
10,N#Cc1ccc(-c2nn(-c3c(Cl)cc(Cl)cc3Cl)c(=N)s2)cc1,6 µM
11,COC(=O)c1ccc(-c2nn(-c3c(Cl)cc(Cl)cc3Cl)c(=N)s2)cc1,11 µM
12,N=c1sc(-c2ccc(Cl)cc2)nn1-c1c(Cl)cc(Cl)cc1Cl,5 µM
13,COc1ccc(OC)c(-c2nn(-c3c(Cl)cc(C(F)(F)F)cc3Cl)c(=N)s2)c1,4 µM
14,N=c1sc(-c2ccc(OC(F)(F)F)cc2)nn1-c1c(Cl)cc(Cl)cc1Cl,5 µM
15,N=c1sc(-c2ccccc2OC(F)(F)F)nn1-c1c(Cl)cc(C(F)(F)F)cc1Cl,85 µM
16,Cc1ccc(-c2nn(-c3c(Cl)cc(Cl)cc3Cl)c(=N)s2)cc1,7 µM
17,N=c1sc(-c2cccnc2)nn1-c1c(Cl)cc(Cl)cc1Cl,40 µM
18,N=c1sc(-c2cccnn2)nn1-c1c(Cl)cc(C(F)(F)F)cc1Cl,35 µM
19,COc1ccc(-c2nn(-c3c(Cl)cc(Cl)cc3Cl)c(=N)s2)cc1,80 µM
20,CC(=O)Nc1ccc(-c2nn(-c3c(Cl)cc(Cl)cc3Cl)c(=N)s2)cc1,70 µM

# Continued by falling IC50, values first:
row,IC50,Structure (SMILES)
1,4 µM,Cc1ccccc1-c1nn(-c2c(Cl)cc(Cl)cc2Cl)c(=N)s1
2,4 µM,CCOC(=O)Oc1ccc(-c2nn(-c3c(Cl)cc(Cl)cc3Cl)c(=N)s2)cc1
3,4 µM,N=c1sc(-c2ccc(Br)cc2)nn1-c1c(Cl)cc(Cl)cc1Cl
4,4 µM,N=c1sc(-c2cccc(C(F)(F)F)c2F)nn1-c1c(Cl)cc(Cl)cc1Cl
5,4 µM,N=c1sc(-c2ccc(O)cc2)nn1-c1c(Cl)cc(Cl)cc1Cl
6,3 µM,N=c1sc(-c2ccccc2)nn1-c1c(Cl)cc(Cl)cc1Cl
7,2.6 µM,N=c1sc(-c2ccncn2)nn1-c1c(Cl)cc(C(F)(F)F)cc1Cl
8,2.4 µM,N=c1sc(-c2ncc(C(F)(F)F)cc2Cl)nn1-c1c(Cl)cc(C(F)(F)F)cc1Cl
9,1 µM,N=c1sc(-c2ccc(C(F)(F)F)cc2F)nn1-c1c(Cl)cc(Cl)cc1Cl
10,0.9 µM,N=c1sc(-c2ccc(F)cc2)nn1-c1c(Cl)cc(Cl)cc1Cl
11,0.63 µM,N=c1sc(-c2cc([N+](=O)[O-])ccc2F)nn1-c1c(Cl)cc(C(F)(F)F)cc1Cl
12,0.63 µM,N=c1sc(-c2cc(Br)ccc2F)nn1-c1c(Cl)cc(C(F)(F)F)cc1Cl
13,0.5 µM,N=c1sc(-c2ccccc2F)nn1-c1c(Cl)cc(Cl)cc1Cl
14,0.4 µM,N=c1sc(-c2ccccn2)nn1-c1c(Cl)cc(Cl)cc1Cl
15,0.37 µM,N=c1sc(-c2cc(F)ccc2F)nn1-c1c(Cl)cc(C(F)(F)F)cc1Cl
16,0.2 µM,N=c1sc(-c2cnccn2)nn1-c1c(Cl)cc(C(F)(F)F)cc1Cl
17,0.16 µM,N=c1sc(-c2cc(Cl)ccn2)nn1-c1c(Cl)cc(C(F)(F)F)cc1Cl
18,0.15 µM,N=c1sc(-c2ccccc2F)nn1-c1c(Cl)cc(C(F)(F)F)cc1Cl
19,0.14 µM,N=c1sc(-c2ccccn2)nn1-c1c(Cl)cc(Cl)cc1C(F)(F)F
20,0.13 µM,COC(=O)c1ccnc(-c2nn(-c3c(Cl)cc(C(F)(F)F)cc3Cl)c(=N)s2)c1
21,0.1 µM,N=c1sc(-c2cc(C(F)(F)F)ccc2F)nn1-c1c(Cl)cc(Cl)cc1Cl
22,0.09 µM,N=c1sc(-c2ccccn2)nn1-c1c(Cl)cc(C(F)(F)F)cc1Cl
23,0.063 µM,N=c1sc(-c2cc(C(F)(F)F)ccc2F)nn1-c1c(Cl)cc(C(F)(F)F)cc1Cl
24,0.037 µM,CC(C)(C)c1cc(-c2nn(-c3c(Cl)cc(C(F)(F)F)cc3Cl)c(=N)s2)ccn1
25,0.021 µM,N=c1sc(-c2cncc(C(F)(F)F)c2)nn1-c1c(Cl)cc(C(F)(F)F)cc1Cl
26,0.013 µM,N=c1sc(-c2ccnc([N+](=O)[O-])c2)nn1-c1c(Cl)cc(C(F)(F)F)cc1Cl
27,0.01 µM,N#Cc1ccnc(-c2nn(-c3c(Cl)cc(C(F)(F)F)cc3Cl)c(=N)s2)c1
